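Cells were grown in 96-well plates and exposed to each compound for 48 hours at five concentrations; endpoints were interpolated linearly between bracketing concentrations, or set to the highest concentration if not reached. At the GI50, growth is halved.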 The source made the active and inactive calls. Rule as the data show it: active = GI50 up to about 1.1 µM and inactive = higher.
Tests used:
Test in all cases: DTP human tumour cell line panel, 48 h
786-0 = system: 786-0
CCRF-CEM = system: CCRF-CEM
DU-145 = system: DU-145
EKVX = system: EKVX
HCT-15 = system: HCT-15
HL-60 = system: HL-60
IGROV-1 = system: IGROV-1
MCF7 = system: MCF7
MDA-MB-231 = system: MDA-MB-231
Malme-3M = system: Malme-3M
NCI-H23 = system: NCI-H23
NCI-H460 = system: NCI-H460
SF-295 = system: SF-295
SK-MEL-5 = system: SK-MEL-5
SK-OV-3 = system: SK-OV-3
SN12C = system: SN12C
SNB-75 = system: SNB-75
SW-620 = system: SW-620
T47D = system: T47D
SK-MEL-2 = system: SK-MEL-2

Structure (SMILES)	GI50 (786-0)	GI50 (CCRF-CEM)	GI50 (DU-145)	GI50 (EKVX)	GI50 (HCT-15) [µM]	GI50 (HL-60)	GI50 (IGROV-1)	GI50 (MCF7)	GI50 (MDA-MB-231)	GI50 (Malme-3M)	GI50 (NCI-H23)	GI50 (NCI-H460)	GI50 (SF-295)	GI50 (SK-MEL-5)	GI50 (SK-OV-3)	GI50 (SN12C)	GI50 (SNB-75)	GI50 (SW-620)	GI50 (T47D)	GI50 (SK-MEL-2)
COC(=O)C1(Cc2ccc3c(c2)CCC3)Cc2ccc3c(c2C1O)CCC3 (stereo not drawn)	14.7 µM (inactive)	> 100 µM (inactive)	11.8 µM (inactive)	8.89 µM (inactive)	> 10	23.1 µM (inactive)	> 10 µM (inactive)	12.9 µM (inactive)	12.7 µM (inactive)	12.2 µM (inactive)	> 10 µM (inactive)	21 µM (inactive)	17.5 µM (inactive)	10.2 µM (inactive)	18.5 µM (inactive)	15 µM (inactive)	32.2 µM (inactive)	14.5 µM (inactive)	8.81 µM (inactive)	
COc1cc(S(=O)(=O)Nc2nc(-c3ccc(N4C(=O)/C(=C/c5ccccc5[N+](=O)[O-])N=C4c4ccccc4)cc3)cs2)ccc1Cl	> 100 µM (inactive)	> 100 µM (inactive)	> 100 µM (inactive)		> 100	44.3 µM (inactive)	41.6 µM (inactive)	34.6 µM (inactive)	19.9 µM (inactive)	> 100 µM (inactive)	29.9 µM (inactive)	> 100 µM (inactive)	> 100 µM (inactive)	48.9 µM (inactive)	95.7 µM (inactive)	> 100 µM (inactive)	> 100 µM (inactive)	> 100 µM (inactive)	55.5 µM (inactive)	33.3 µM (inactive)
C=C1C(=O)OC2C1CC(O)/C(C)=C\CCC1(C)OC21 (stereo not drawn)	31 µM (inactive)	25.4 µM (inactive)	32.8 µM (inactive)	36.7 µM (inactive)	16.3	23.7 µM (inactive)	32.5 µM (inactive)	28.2 µM (inactive)	15.5 µM (inactive)	19.2 µM (inactive)	31.3 µM (inactive)	31.8 µM (inactive)	30.3 µM (inactive)	21 µM (inactive)	49.9 µM (inactive)		39.8 µM (inactive)	38.8 µM (inactive)	46.1 µM (inactive)	17.5 µM (inactive)
O=C(OCc1ccccc1)N1CCNCCNCCN(C(=O)OCc2ccccc2)CCNCC1	14.3 µM (inactive)	18.8 µM (inactive)	> 100 µM (inactive)	24 µM (inactive)	18.7	8.2 µM (inactive)	32.1 µM (inactive)	17.8 µM (inactive)	16.1 µM (inactive)	20.1 µM (inactive)		21.2 µM (inactive)	16.4 µM (inactive)	14.1 µM (inactive)	> 100 µM (inactive)	47.4 µM (inactive)	21.5 µM (inactive)	17.1 µM (inactive)	17.1 µM (inactive)	17.5 µM (inactive)
OC1CCCN(C2(c3cccs3)CCCCC2)C1 (stereo not drawn)	> 100 µM (inactive)		> 100 µM (inactive)	> 100 µM (inactive)	> 100	74.6 µM (inactive)	97.5 µM (inactive)	> 100 µM (inactive)	> 100 µM (inactive)	> 100 µM (inactive)	> 100 µM (inactive)	> 100 µM (inactive)	> 100 µM (inactive)	> 100 µM (inactive)	> 100 µM (inactive)	> 100 µM (inactive)	> 100 µM (inactive)	> 100 µM (inactive)	> 100 µM (inactive)	> 100 µM (inactive)
COc1cc([N+](=O)[O-])c(S(=O)(=O)O)cc1NS(=O)(=O)c1ccc(C)cc1	> 100 µM (inactive)	> 100 µM (inactive)	> 100 µM (inactive)	> 100 µM (inactive)	> 100	> 100 µM (inactive)	> 100 µM (inactive)	> 100 µM (inactive)	> 100 µM (inactive)		> 100 µM (inactive)	> 100 µM (inactive)	> 100 µM (inactive)	> 100 µM (inactive)	> 100 µM (inactive)	> 100 µM (inactive)	> 100 µM (inactive)	> 100 µM (inactive)	> 100 µM (inactive)	> 100 µM (inactive)
O=c1cc(-c2ccccc2F)[nH]c2cc3c(cc12)OCO3	0.182 µM (active)	0.129 µM (active)	0.0399 µM (active)		0.0417	0.0454 µM (active)	0.118 µM (active)	0.0953 µM (active)	0.29 µM (active)	0.053 µM (active)	0.35 µM (active)	0.107 µM (active)	0.0993 µM (active)	0.0211 µM (active)	0.201 µM (active)	0.281 µM (active)	0.247 µM (active)	0.0356 µM (active)	> 100 µM (inactive)	0.1 µM (active)
